In general, IC50 refers to the concentration needed to halve the response being measured. The EC50 is the midpoint of the concentration-response curve. Low values mean higher potency in that assay, high ones lower potency in that assay.

Where only a bound is given, the exact number is not on record here.

One test relates to CK 8/18. Kind of test: Western immunoblotting for CK 8/18 in MCF-7 and T47D cells. In kind it is cell-based, human. As to conditions: 6 days; for Increase in expression of CK 8/18 compared with control: 1 and 5 μM, MCF-7 and T47D cells; for Effect on expression of CK 8/18 (in words): 5 μM, MCF-7 cells. Here is the method:
At the end of the treatment, cells were scrapped and collected by washing with ice-cold PBS in a centrifuge tube. Cells were centrifuged at 2500 r.p.m. for 10 min, the pellet was again washed with ice-cold PBS and centrifuged. The cell pellet was then suspended in chilled cell lysis buffer (0.1 M Tris–HCl, 0.5% Triton X-100, protease inhibitor cocktail) and sonicated on ice for 10–15 s. The homogenate was kept on ice for 30 min and then centrifuged at 13 000 r.p.m. for 30 min. The supernatant was used as cell lysate. The cell lysates were stored at −80°C. Protein concentration of the cell lysates was determined using Bio-Rad protein assay reagents.
Protein lysates from MCF-7 and T47D cells were subjected to sodium dodecyl sulphate–polyacrylamide gel electrophoresis (SDS–PAGE) and immunoblotted for different proteins. Equal amounts of protein (25–50 μg) were subjected to SDS–PAGE at 60 V for 3 h using the mini PROTEAN3 electrophoresis module assembly (Bio-Rad, Hercules, CA, USA), and transferred to nitrocellulose membranes (Hybond ECL, Amersham). Immunodetections were carried out using antibodies against CK 8/18 (1° antibody – 1 : 8000 in 10% milk PBST), E-cadherin (1° antibody – 1 : 1000 in 5% milk in TBST) and ER-α (1° antibody – 1 : 200 in 5% milk PBST) purchased from Santa Cruz Biotechnology Inc. Antibodies against PARP (1° antibody – 1 : 1000 in 5% milk TBST), cyclin- D1 (1° antibody – 1 : 2000 in 10% milk TBST), caspase-9 (1° antibody – 1 : 1000 in 10% milk TBST) and BAD (1° antibody – 1 : 1000 in 5% BSA TBST) were obtained from Cell Signaling Technology. Antibody for β-actin was obtained from Calbiochem (CA, USA). Secondary anti-mouse IgG HRP conjugate antibody was purchased from Calbiochem and Bio-Rad. Secondary anti-rabbit IgG HRP conjugate antibody was bought from Bio-Rad as well as from Kirkegaard and Perry laboratories (Gaithersburg, MD, USA). Immunoreactive bands were visualised using the enhanced chemiluminescence detection reagents and analysis system (Amersham Bioscences) according to the manufacturer's instructions and quantified by densitometry using ImageQuant software version 5.
The effects of these agents on the expression levels of markers associated with differentiation (CK 8/18 and ER-α) were investigated following established procedures ([Jing et al, 1996]; [Korsching et al, 2002]; [Kim and Freeman, 2003]; [Woelfle et al, 2004]). […] At the end of the treatment, cell lysates were prepared and the expression of cytoskeletal proteins CK 8/18 were evaluated by Western immunoblotting. […] Unexpectedly, VN/66-1 and VN/69-1 caused downregulation in the expression of CK 8/18.
Numbers below the blot show fold increase in expression of the protein as analysed by ImageQuant densitometry analysis. […]
In general terms: Immunoblotting shows a protein as a band on a membrane.

For another test, the system named is T47D cells. Kind of test: Cell cycle analysis by flow cytometry (PI), T47D. As to conditions: 5 μM, 6 days (4-HPR 4 days). Type of test: cell-based, human. Here is the method:
MCF-7 and T47D cells were plated in T-25 flasks and allowed to adhere for about 18 h. The cells were then synchronised by growing them in low-serum OPTI-MEM I medium for 2 days. […] After 6-day treatment, the cells were trypsinised, washed twice with PBS, centrifuged at 2500 r.p.m. to obtain a cell pellet. The cells (about 1–2 × 10^6) were fixed with 3 ml of 70% ethanol (by adding drop-wise and taking care that the cells are not clumped together). Cells were kept at −20°C until further analysis (at least overnight). Next, cells (∼1–2 × 10^6) were stained with 1 ml of propidium iodide (PI) (50 μg ml^−1)/RNase (100 μg ml^−1) solution and after about half an hour the fluorescence of stained nuclei (15 000 events) was analysed by flow cytometry (Becton Dickinson FACScan Instrument and quantification by Modfit LT version 3.1 software) with excitation wavelength of 488 nm. The percentage of G1, S, G2/M and sub-G1 (apoptotic cells) in the population of treated and untreated cells were determined.
(In flow cytometry, cells or beads pass a laser one at a time.)

The next test deals with MCF-7 cells. Also noted: method as in Patel et al. (2004). As to conditions: inhibition of cell proliferation by 50%; ref Patel et al. (2004); read-out: Cellular IC50, MCF-7; cited from earlier work.
In test [1] the target is T1, RARα (Mus musculus, UniProt P11416).
T1 sequence (P11416 1-462): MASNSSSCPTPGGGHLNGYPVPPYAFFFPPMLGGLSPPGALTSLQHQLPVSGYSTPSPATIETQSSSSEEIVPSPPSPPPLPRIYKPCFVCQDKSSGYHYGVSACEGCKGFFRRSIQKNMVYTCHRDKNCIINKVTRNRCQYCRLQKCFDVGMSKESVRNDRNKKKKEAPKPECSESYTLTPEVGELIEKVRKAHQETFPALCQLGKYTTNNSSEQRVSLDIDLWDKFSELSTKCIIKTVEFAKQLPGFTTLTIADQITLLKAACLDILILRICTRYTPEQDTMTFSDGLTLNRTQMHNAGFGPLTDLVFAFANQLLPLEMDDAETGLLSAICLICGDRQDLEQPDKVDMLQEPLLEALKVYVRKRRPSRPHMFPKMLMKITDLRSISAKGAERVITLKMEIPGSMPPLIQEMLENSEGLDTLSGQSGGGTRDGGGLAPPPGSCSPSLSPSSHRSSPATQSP
Description: Transactivation assay (RARE-CAT reporter, CV-1 cells), RARα. To be noted: 50% of maximal activity obtained with 10^−6 M all-trans-RA. Type of test: cell-based. Here is the method: Briefly, CV-1 cells were cotransfected with 4 μg RAR subtype (RARα, RARβ or RARγ) expression vector construct in pSG5, 4 μg RARE-CAT reporter DNA and 1 μg pCMV-β-gal DNA. Twenty-four hours following transfection, the cells were treated with various concentrations of each RAMBA ranging from 10^−11–10^−5 M along with an ethanol carrier control. Additional cells were treated with 10^−6 M all-trans-RA for normalisation. Twenty-four hours later, the cells were harvested and CAT and β-gal activities were assayed.

Test [2] addresses T1, RARα. Description: Retinoid receptor competition binding assay, RARα. Further details: The full-length cDNA clones for RARα, RARβ, RARγ and RXRα were cloned into the prokaryotic expression vector pET29; S-Tag; made in house; host or cells: prokaryotic host (pET29 vector). As to conditions: competition with 1.0 nM [3H]-all-trans-RA.

Turning to `CC1=C(/C=C/C(C)=C/C=C/C(C)=C/C(=O)O)C(C)(C)CCC1` [ATRA, all-trans-retinoic acid, reference compound], in the test on CK 8/18, the “Increase in expression of CK 8/18 compared with control” value is 2–3 fold. In the test on T47D cells, the “G2/M (%)” value came out at 13.03±4.06%, the “Go/G1 (%)” value is reported as 83.89±0.96%, the “S (%)” value is reported as 3.1±1.3% and the “Sub-G1 (%)” value worked out at 17.12±4.06%. In the test on MCF-7 cells, the half-maximal inhibitory concentration (IC50) is 585 nM.
On to `CC1=C(/C=C/C(C)=C/C=C/C(C)=C/C(=O)O)C(C)(C)CCC1n1ccnc1` (stereo not drawn) [VN/14-1], for which it took 300 nM to reach a half-maximal effect at RARα [1] (EC50). Also, the “Increase in expression of CK 8/18 compared with control” value in the test with CK 8/18 is recorded as 2–3 fold. Further, in the test with T47D cells, the “G2/M (%)” value is recorded as 20.85±3.75%, the “Go/G1 (%)” value was found to be 77.98±2.56%, the “S (%)” value turned out to be 1.18±1.0% and the “Sub-G1 (%)” value is reported as 22.38±2.95%. The IC50 in the test on MCF-7 cells is 494 nM. The compound further yielded an IC50 at RARα [2] of 16 nM.
Consider `CC1=C(/C=C/C(C)=C/C=C/C(C)=C/C(=O)Nc2ccc(O)cc2)C(C)(C)CCC1n1ccnc1` (stereo not drawn) [VN/66-1], for which the EC50 at RARα [1] is > 10000 nM. Moreover, the “Effect on expression of CK 8/18 (in words)” value in the test with CK 8/18 is “downregulation”. For the same compound, in the test on T47D cells, the “G2/M (%)” value is 19.57±0.21%, the “Go/G1 (%)” value is 80.44±0.20%, the “S (%)” value amounted to 0% and the “Sub-G1 (%)” value amounted to 26.41±1.18%. The IC50 with MCF-7 cells was 590 nM. Besides, the IC50 at RARα [2] was > 1000 nM.
Consider `CC1=C(/C=C/C(C)=C/C=C/C(C)=C\C(=O)Nc2ccc(O)cc2)C(C)(C)CCC1n1ccnc1` (stereo not drawn) [VN/69-1], for which, on RARα [1], the EC50 was > 10000 nM. The “Effect on expression of CK 8/18 (in words)” value with CK 8/18 is on record as “downregulation”. Besides, in the test on T47D cells, the “G2/M (%)” value is recorded as 21.01±0.99%, the “Go/G1 (%)” value was 78.99±0.99%, the “S (%)” value was 0% and the “Sub-G1 (%)” value amounted to 24.34±1.24%. For the same compound, the IC50 in the test with MCF-7 cells is 609 nM. Besides, the IC50 at RARα [2] is > 1000 nM.
